In patent publication US20260217732A1, “WRN INHIBITOR” (SUZHOU PUHE BIOPHARMA CO., LTD., priority 2022, published 2026):
Where two headings read alike, the source gives them in different places.

Legend:
WRN enzyme = target: T1, WRN enzyme (Homo sapiens, UniProt Q14191); test: WRN helicase hydrolysis (unwinding) of double-stranded DNA, fluorescence assay; type: biochemical; details: 30 min pre-incubation, 60 min reaction
T1 construct: 10 μL (2×) of WRN enzyme solution was added
Protocol: • The molecules of the present disclosure were tested for their activities on the WRN helicase hydrolysis of double-stranded DNA (Table 1).
A working solution to be tested and a buffer were prepared. The compound to be tested was dissolved in DMSO and subjected to 4× dilution (with 10 μM final concentration as the starting concentration). 0.2 μL of the solution of the compound to be tested was added to the 384-well plate and 10 μL (2×) of WRN enzyme solution was added. The solution was incubated in the dark for 30 minutes. Then, 10 μL of a substrate detection solution containing double-stranded DNA was added to initiate the reaction (the DNA has a length of 19 bp, and labeled with TAMRA and BHQ2 at 3′ and 5′-ends, respectively). The solution was incubated at room temperature for 60 minutes. The inhibitory activities (IC50) against WRN enzyme were calculated based on the change of Ex530/Em590 in the blank group (DMSO) and the compound group.

[1] = tested on: SW48 colorectal cancer cells; test: 2D antiproliferation on MSI-H SW48 cells, CTG, 5 days; type: cell-based; details: for IC50 / inhibition at 38.15 pM / inhibition at 0.000152588 µM / inhibition at 0.000610352 µM / inhibition at 0.00976562 µM / inhibition at 0.0390625 µM / inhibition at 0.15625 µM / inhibition at 0.625 µM / inhibition at […] / inhibition at 10 µM / inhibition at 0.00244141 µM: Homo sapiens; for IC50: 120 h, SW48 MSI-H, 5 days; for inhibition at 38.15 pM: SW48, 0.038146973 nM; for inhibition at 0.000152588 µM: SW48, 0.152587891 nM; for inhibition at 0.000610352 µM: SW48, 0.610351563 nM; for inhibition at 0.00976562 µM: SW48, 9.765625 nM; for inhibition at 0.0390625 µM: SW48, 39.0625 nM; for inhibition at 0.15625 µM: SW48, 156.25 nM; for inhibition at 0.625 µM: SW48, 625 nM; for inhibition at […]: SW48, 2500 nM; for inhibition at 10 µM: SW48, 10000 nM; for inhibition at 0.00244141 µM: SW48, 2.44140625 nM
Protocol: The molecules of the present disclosure were tested for their anti-proliferative activity on MSI-H tumor cells.
SW48 colorectal cancer cells with MSI were cultured in a RMI1640 medium containing 10% FBS and 1% penicillin-streptomycin, and the mixture was cultured in a 37° C., 5% CO2 incubator. 40 μL of cell suspension was added to each well of a 384-well microplate. […] of compounds with different concentrations were added to each well using Echo, and the mixtures were cultured in a 37° C., 5% CO2 incubator for 5 days. 40 μL of CTG solution (Promega, Cat No. G7573) was added to each well and incubated in a 37° C., 5% CO2 incubator in the dark for 30 minutes. The luminescence value was read using an Envision multi-function microplate reader (Perkin Elmer, catalog number Envision 2104). The optical signal is proportional to the amount of ATP in the system, while the ATP content directly characterizes the number of viable cells in the system.

[2] = tested on: HT-29 colorectal cancer cells; test: 2D antiproliferation on MSS HT-29 cells, CTG, 5 days; type: cell-based; details: Homo sapiens, 120 h, HT-29 MSS
Protocol: The molecules of the invention were tested for their anti-proliferative activities on MSS tumor cells.
HT-29 colorectal cancer cells with MSS were cultured in a McCoy's 5A medium containing 10% FBS and 1% penicillin-streptomycin in a 37° C., 5% CO2 constant temperature incubator. 40 μL of cell suspension was added to each well of a 384-well microplate. […] of compounds with different concentrations were added to each well using Echo. The mixtures were cultured in a 37° C., 5% CO2 constant temperature incubator for 5 days. 40 μL of CTG solution (Promega, Cat No. G7573) was added to each well, and the mixture was incubated in a 37° C., 5% CO2 constant temperature incubator for 30 minutes in the dark. The luminescence value was read using an Envision multi-function microplate reader (Perkin Elmer, catalog number Envision 2104). The optical signal is proportional to the amount of ATP in the system, while the ATP content directly characterizes the number of viable cells in the system.

[3] = tested on: SW48 (MSI-H) colorectal cancer tumor cells; test: In vivo efficacy, SW48 xenograft in nude mice; set-up: species or system BALB/c nude mice; details: QD, oral; for TGI: 21 days; for Tumor Volume D 1: day 1; for Tumor volume D 21: day 21
Protocol: In vivo efficacy experiment in BALB/C nude mice. Details are as follows:
SW48 (MSI-H) colorectal cancer tumor cells were cultured (in an L15 medium with 10% fetal bovine serum), and inoculated into 6-8 week old female BALB/c nude mice (with body weight of about 20 g). All the mice were inoculated subcutaneously. The mice were raised in an SPF-grade experimental environment, and all the mice were free to take commercially certified standard diets. When the tumors grew to an average volume of about 160 mm^3 in mice, the test compound was orally administered daily. […] The tumor volume was measured with a two-dimensional caliper three times a week, and the animals were weighed every day. […] The volume calculation formula is: V=1/2a*b^2, where a represents the long diameter of the tumor and b represents the short diameter of the tumor.

[4] = read-out: Average Value/Inhibition Rate
[5] = read-out: Test 1/Inhibition Rate
[6] = read-out: Test 2/Inhibition Rate

T1 sequence (Q14191 whole entry): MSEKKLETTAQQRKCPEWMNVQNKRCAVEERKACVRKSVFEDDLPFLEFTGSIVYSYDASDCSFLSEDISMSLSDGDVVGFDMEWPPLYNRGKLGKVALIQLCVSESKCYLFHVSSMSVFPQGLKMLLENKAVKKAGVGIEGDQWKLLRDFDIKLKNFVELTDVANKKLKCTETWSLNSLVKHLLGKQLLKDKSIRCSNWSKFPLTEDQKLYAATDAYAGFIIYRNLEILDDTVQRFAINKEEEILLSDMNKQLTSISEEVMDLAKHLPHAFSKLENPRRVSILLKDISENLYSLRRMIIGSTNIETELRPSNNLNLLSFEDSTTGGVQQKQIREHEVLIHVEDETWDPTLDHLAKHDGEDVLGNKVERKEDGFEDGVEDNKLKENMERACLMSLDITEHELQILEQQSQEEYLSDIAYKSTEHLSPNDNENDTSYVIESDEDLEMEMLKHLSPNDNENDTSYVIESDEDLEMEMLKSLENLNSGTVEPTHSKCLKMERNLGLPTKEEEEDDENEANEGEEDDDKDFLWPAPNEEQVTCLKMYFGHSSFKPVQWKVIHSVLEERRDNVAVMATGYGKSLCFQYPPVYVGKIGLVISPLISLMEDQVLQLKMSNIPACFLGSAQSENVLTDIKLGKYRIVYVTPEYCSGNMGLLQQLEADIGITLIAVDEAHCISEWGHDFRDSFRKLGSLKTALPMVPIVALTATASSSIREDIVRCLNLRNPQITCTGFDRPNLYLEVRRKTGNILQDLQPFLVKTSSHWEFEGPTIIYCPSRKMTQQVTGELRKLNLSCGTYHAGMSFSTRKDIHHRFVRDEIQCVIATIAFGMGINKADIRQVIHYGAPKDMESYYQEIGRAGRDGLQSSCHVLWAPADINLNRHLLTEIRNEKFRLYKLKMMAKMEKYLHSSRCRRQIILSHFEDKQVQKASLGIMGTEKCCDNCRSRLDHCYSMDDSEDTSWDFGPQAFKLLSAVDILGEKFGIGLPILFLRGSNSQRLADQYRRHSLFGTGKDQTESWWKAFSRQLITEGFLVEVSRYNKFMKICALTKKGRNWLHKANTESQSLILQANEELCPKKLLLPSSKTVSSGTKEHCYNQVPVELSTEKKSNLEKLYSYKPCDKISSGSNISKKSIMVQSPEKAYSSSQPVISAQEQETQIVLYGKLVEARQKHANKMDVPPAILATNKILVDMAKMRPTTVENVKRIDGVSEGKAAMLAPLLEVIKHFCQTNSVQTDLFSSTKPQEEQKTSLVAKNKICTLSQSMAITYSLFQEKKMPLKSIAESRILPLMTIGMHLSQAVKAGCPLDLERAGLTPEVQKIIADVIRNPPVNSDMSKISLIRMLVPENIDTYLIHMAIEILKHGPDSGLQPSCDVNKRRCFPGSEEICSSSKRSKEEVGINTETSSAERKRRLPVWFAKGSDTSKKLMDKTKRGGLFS

CCc1c(N2CCN(C(=O)c3ncnc(C)c3O)CC2)c(=O)n2nc(-c3cc4c(s3)COC4)nc2n1CC(=O)Nc1ccc(C(F)(F)F)cc1Cl [P7]
IC50 (WRN enzyme): 1.4 nM | inhibitory activity on SW48 cells ([1]; 39 nM): high inhibitory activity | IC50 [1]: 39 nM | inhibition at 38.15 pM [1, 4]: 6.64% | inhibition at 38.15 pM [1, 5]: 2.01% | inhibition at 38.15 pM [1, 6]: 11.3% | inhibition at 0.000152588 µM [1, 4]: 3.66% | inhibition at 0.000152588 µM [1, 5]: -6.35% | inhibition at 0.000152588 µM [1, 6]: 13.7% | inhibition at 0.000610352 µM [1, 4]: 4.19% | inhibition at 0.000610352 µM [1, 5]: -2.7% | inhibition at 0.000610352 µM [1, 6]: 11.1% | inhibition at 0.00976562 µM [1, 4]: 2.23% | inhibition at 0.00976562 µM [1, 5]: -0.534% | inhibition at 0.00976562 µM [1, 6]: 4.98% | inhibition at 0.0390625 µM [1, 4]: 54.8% | inhibition at 0.0390625 µM [1, 5]: 56% | inhibition at 0.0390625 µM [1, 6]: 53.6% | inhibition at 0.15625 µM [1, 4]: 99% | inhibition at 0.15625 µM [1, 5]: 98.8% | inhibition at 0.15625 µM [1, 6]: 99.2% | inhibition at 0.625 µM [1, 4]: 100% | inhibition at 0.625 µM [1, 5]: 100% | inhibition at 0.625 µM [1, 6]: 100% | inhibition at […] [1, 4]: 101% | inhibition at […] [1, 5]: 101% | inhibition at 10 µM [1, 4]: 101% | inhibition at 10 µM [1, 5]: 101% | inhibition at 10 µM [1, 6]: 101% | IC50 [2]: > 10000 nM | TGI ([3]; 20 mg/kg): 82% | Tumor Volume D 1 ([3]; 20 mg/kg): 158 mm^3 | Tumor volume D 21 ([3]; 20 mg/kg): 491 mm^3 | TGI ([3]; 50 mg/kg): 105% | Tumor Volume D 1 ([3]; 50 mg/kg): 158 mm^3 | Tumor volume D 21 ([3]; 50 mg/kg): 71 mm^3 | TGI ([3]; 120 mg/kg): 105% | Tumor Volume D 1 ([3]; 120 mg/kg): 174 mm^3 | Tumor volume D 21 ([3]; 120 mg/kg): 24 mm^3

CCc1c(N2CCN(C(=O)c3ncccc3O)CC2)c(=O)n2nc(-c3cc4cn[nH]c4s3)nc2n1CC(=O)Nc1ccc(C(F)(F)F)cc1Cl [P13]
IC50 (WRN enzyme): 2.2 nM | IC50 [1]: 72 nM | IC50 [2]: 9110 nM

CCc1c(N2CCN(C(=O)c3ncccc3O)CC2)c(=O)n2nc(-c3[nH]nc4sccc34)nc2n1CC(=O)Nc1ccc(C(F)(F)F)cc1Cl [P14]
IC50 (WRN enzyme): 4.4 nM | IC50 [1]: 97 nM | IC50 [2]: > 10000 nM

CCc1c(N2CCN(C(=O)c3ncccc3O)CC2)c(=O)n2nc(-c3ccc(C(C)=O)s3)nc2n1CC(=O)Nc1ccc(C(F)(F)F)cc1Cl [P15]
IC50 (WRN enzyme): 1.6 nM | IC50 [1]: 381 nM | IC50 [2]: > 10000 nM

CCc1c(N2CCN(C(=O)c3ncccc3O)CC2)c(=O)n2nc(-c3cc4cnn(C)c4s3)nc2n1CC(=O)Nc1ccc(C(F)(F)F)cc1Cl [P16]
IC50 (WRN enzyme): 2.1 nM | IC50 [1]: 120 nM | IC50 [2]: > 10000 nM

CCc1c(N2CCN(C(=O)c3ncccc3O)CC2)c(=O)n2nc(-c3cc4ccncc4s3)nc2n1CC(=O)Nc1ccc(C(F)(F)F)cc1Cl [P17]
IC50 (WRN enzyme): 2.3 nM | IC50 [1]: 360 nM | IC50 [2]: > 10000 nM

CCc1c(N2CCN(C(=O)c3ncccc3O)CC2)c(=O)n2nc(-c3cc4cnccc4s3)nc2n1CC(=O)Nc1ccc(C(F)(F)F)cc1Cl [P18]
IC50 (WRN enzyme): 1.8 nM | IC50 [1]: 499 nM | IC50 [2]: 4870 nM

CCc1c(N2CCN(C(=O)c3ncccc3O)CC2)c(=O)n2nc(-c3cc4c(s3)COC4)nc2n1CC(=O)Nc1ccc(C(F)(F)F)cc1Cl [P20]
IC50 (WRN enzyme): 1.6 nM | IC50 [1]: 126 nM | IC50 [2]: > 10000 nM

CCc1c(N2CCN(C(=O)c3ncccc3O)CC2)c(=O)n2nc(-c3ccc4c(c3)OCO4)nc2n1CC(=O)Nc1ccc(C(F)(F)F)cc1Cl [P21]
IC50 (WRN enzyme): 3.3 nM | IC50 [1]: 480 nM | IC50 [2]: > 10000 nM

CCc1c(N2CCN(C(=O)c3ncnc(C)c3O)CC2)c(=O)n2nc(-c3cc4c(s3)COC4)nc2n1CC(=O)Nc1ccc(Br)cc1Cl [P24]
IC50 (WRN enzyme): 1.1 nM | IC50 [1]: 39 nM | inhibition at 38.15 pM [1, 4]: -4.41% | inhibition at 38.15 pM [1, 5]: -3.47% | inhibition at 38.15 pM [1, 6]: -5.36% | inhibition at 0.000152588 µM [1, 4]: -3.37% | inhibition at 0.000152588 µM [1, 5]: -6.51% | inhibition at 0.000152588 µM [1, 6]: -0.227% | inhibition at 0.000610352 µM [1, 4]: -6.66% | inhibition at 0.000610352 µM [1, 5]: -6.64% | inhibition at 0.000610352 µM [1, 6]: -6.68% | inhibition at 0.00244141 µM [1, 4]: -5.26% | inhibition at 0.00244141 µM [1, 5]: -4.87% | inhibition at 0.00244141 µM [1, 6]: -5.64% | inhibition at 0.00976562 µM [1, 4]: -8.31% | inhibition at 0.00976562 µM [1, 5]: -8.85% | inhibition at 0.00976562 µM [1, 6]: -7.77% | inhibition at 0.0390625 µM [1, 4]: 43.7% | inhibition at 0.0390625 µM [1, 5]: 40.3% | inhibition at 0.0390625 µM [1, 6]: 47.1% | inhibition at 0.15625 µM [1, 4]: 98.7% | inhibition at 0.15625 µM [1, 5]: 98.6% | inhibition at 0.15625 µM [1, 6]: 98.8% | inhibition at 0.625 µM [1, 4]: 97.4% | inhibition at 0.625 µM [1, 5]: 97.6% | inhibition at 0.625 µM [1, 6]: 97.2% | inhibition at […] [1, 4]: 97.6% | inhibition at […] [1, 5]: 96.9% | inhibition at […] [1, 6]: 98.3% | inhibition at 10 µM [1, 4]: 97.3% | inhibition at 10 µM [1, 5]: 97.4% | inhibition at 10 µM [1, 6]: 97.3% | IC50 [2]: > 10000 nM | TGI ([3]; 50 mg/kg): 105% | Tumor Volume D 1 ([3]; 50 mg/kg): 161 mm^3 | Tumor volume D 21 ([3]; 50 mg/kg): 72 mm^3

CCc1c(N2CCN(C(=O)c3ncnc(C)c3O)CC2)c(=O)n2nc(-c3cc4c(s3)COC4)nc2n1CC(=O)Nc1ccc(Br)cc1C [P25]
IC50 (WRN enzyme): 1.7 nM | IC50 [1]: 39 nM | IC50 [2]: > 10000 nM

CCc1c(N2CCN(C(=O)c3ncnc(C)c3O)CC2)c(=O)n2nc(-c3cc4c(s3)COC4)nc2n1CC(=O)Nc1ccc(C(F)(F)F)cc1F [P32]
IC50 (WRN enzyme): 1.5 nM | IC50 [1]: 126 nM | IC50 [2]: > 10000 nM

CCc1c(N2CCN(C(=O)c3ncccc3O)CC2)c(=O)n2nc(-c3cnc(COC)s3)nc2n1CC(=O)Nc1ccc(C(F)(F)F)cc1Cl [P33]
IC50 (WRN enzyme): 1.8 nM | IC50 [1]: 139 nM | IC50 [2]: > 10000 nM

CCc1c(N2CCN(C(=O)c3ncccc3O)CC2)c(=O)n2nc(-c3cc4c(s3)COC4)nc2n1CC(=O)Nc1ccc(C(F)(F)F)c2ccsc12 [P58]
IC50 (WRN enzyme): 2.9 nM | IC50 [1]: 123 nM | IC50 [2]: > 10000 nM
